Measured values as given in US20150190460A1, “OSTEOPONTIN PEPTIDE FRAGMENTS FOR USE IN SUPPRESSION OR PREVENTION OF TUMOR GROWTH” (FORSYTH DENTAL INFIRMARY FOR CHILDREN (D/B/A THE FORSYTH …, priority 2012, published 2015).

Tests used:
[1] = system: 275-3-2 murine ras-transformed fibroblast cells; experiment: Oral administration of osteopontin to 129B6F1 tumor-bearing mice; format: in vivo; conditions: for size of the tumor: FIG. 1b
Experimental: A bovine OPN preparation (Lacprodan®, Arla Foods Ingredients, Viby, Denmark) was dissolved in deionized water, filtered, and administered at final concentrations of 0.03, 0.12, or 0.3 mg/ml to 129B6F1 tumor-bearing mice starting either on the day of tumor cell inoculation (Day 0) or five days later (Day 5). The mice were initially inoculated with 5×10^4 mycoplasma-free 275-3-2 murine ras-transformed fibroblast cells (see Wu 2000). Tumor size was measured with calipers and monitored until the tumors reached 20% of the body weight of the animals, at which time the mice were sacrificed and tissue/plasma samples collected. Statistical significance was calculated using one-way ANOVA with Bonferroni post-test.

[2] = Competition ELISA for bovine OPN in plasma of mice fed with OPN; format: in vivo; conditions: mice fed 50 mg of OPN over 10-30 minutes
Experimental: In a previous experiment the inventors have detected osteopontin peptides in the plasma of mice fed with OPN using a competition ELISA for bovine OPN: the assay was designed to detect any peptides that can block interaction of intact bovine OPN with the polyclonal antibody used. Plasma from mice fed 50 mg of OPN over 10-30 minutes was analyzed using this ELISA. Peak antibody reactivity was detected at 1-4 hours after feeding, with the highest mean levels being close to 5000 ng/ml.

OPN: bovine OPN preparation (Lacprodan®, Arla Foods Ingredients, Viby, Denmark)
size of the tumor ([1]; oral OPN 0.12 mg/ml started five days after tumor cell injection, at 15 days): statistically significant decrease
size of the tumor ([1]; oral OPN 0.3 mg/ml started five days after tumor cell injection, at 17 days): statistically significant decrease
effect on the size of the tumors ([1]; oral OPN in drinking water started at the time of tumor injection (Day 0), up to 17 days, FIG. 1A): no significant effect
most effective dose of OPN preparation ([1]; oral dosing experiments, 0.03, 0.12, 0.3 mg/ml, highest dose used): 0.3 mg/mL
effect of treatment on mouse weight ([1]; oral, about 1.5 mg protein administered): nor is there any effect
highest mean plasma levels (immunoreactive OPN peptides) [2]: ~5000 ng/mL
time of peak antibody reactivity in plasma after feeding [2]: 1 to 4 h
